Laboratory results published in PubChem BioAssay (NCI).
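Growth conditions: 96-well plates. Treatment: test compound, 48 hours, 5 concentrations. Analysis: linear interpolation between bracketing concentrations; unreached endpoints set to highest concentration. TGI denotes the concentration required for complete inhibition of growth.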

Legend:
Assay in all cases: DTP human tumour cell line panel, 48 h
HCT-15 colon = system: HCT-15 colon
OVCAR-3 ovarian = system: OVCAR-3 ovarian
SK-MEL-2 melanoma = system: SK-MEL-2 melanoma
TK-10 renal = system: TK-10 renal
HL-60(TB) leukemia = system: HL-60(TB) leukemia
MOLT-4 leukemia = system: MOLT-4 leukemia
SF-539 CNS = system: SF-539 CNS
OVCAR-4 ovarian = system: OVCAR-4 ovarian
NCI-H23 lung = system: NCI-H23 lung
HOP-92 NSCLC = system: HOP-92 NSCLC
LOX IMVI melanoma = system: LOX IMVI melanoma

SMILES: NC1CC(=O)c2cc(Br)sc21 (stereo not drawn)
- TGI (HCT-15 colon): > 100 µM
- TGI (OVCAR-3 ovarian): > 100 µM
- TGI (SK-MEL-2 melanoma): > 100 µM
- TGI (TK-10 renal): > 100 µM
- TGI (HL-60(TB) leukemia): > 100 µM
- TGI (MOLT-4 leukemia): > 100 µM
- TGI (SF-539 CNS): > 100 µM

SMILES: CC(C)CCC[C@@H](C)C1CCC2[C@@H]3CCC4CC(CCC=C(c5cc(Cl)c(OC(=O)c6ccccc6)c(C(=O)O)c5)c5cc(Cl)c(OC(=O)c6ccccc6)c(C(=O)O)c5)CC[C@]4(C)C3CC[C@@]21C (stereo partly drawn)
- TGI (HCT-15 colon): > 100 µM
- TGI (OVCAR-3 ovarian): > 100 µM
- TGI (OVCAR-4 ovarian): > 100 µM
- TGI (SK-MEL-2 melanoma): > 100 µM
- TGI (TK-10 renal): > 100 µM
- TGI (HL-60(TB) leukemia): > 100 µM
- TGI (NCI-H23 lung): > 100 µM
- TGI (MOLT-4 leukemia): > 100 µM
- TGI (HOP-92 NSCLC): 73.3 µM
- TGI (SF-539 CNS): > 100 µM

SMILES: S=C(Nc1cccc(Cl)c1)Nc1ccccn1
- TGI (HCT-15 colon): > 100 µM
- TGI (OVCAR-3 ovarian): > 100 µM
- TGI (OVCAR-4 ovarian): > 100 µM
- TGI (SK-MEL-2 melanoma): > 100 µM
- TGI (LOX IMVI melanoma): > 100 µM
- TGI (TK-10 renal): > 100 µM
- TGI (HL-60(TB) leukemia): > 100 µM
- TGI (MOLT-4 leukemia): > 100 µM
- TGI (SF-539 CNS): > 100 µM

SMILES: Cc1cc(Cl)ccc1N=NC(=O)NNc1ccc(Cl)cc1C
- TGI (HCT-15 colon): 25.8 µM
- TGI (OVCAR-3 ovarian): 31 µM
- TGI (OVCAR-4 ovarian): 38.6 µM
- TGI (SK-MEL-2 melanoma): 28 µM
- TGI (LOX IMVI melanoma): 30.6 µM
- TGI (TK-10 renal): 38.3 µM
- TGI (HL-60(TB) leukemia): 45.8 µM
- TGI (NCI-H23 lung): 29.8 µM
- TGI (MOLT-4 leukemia): 48.9 µM

SMILES: COC(=O)[C@H](Cc1ccccc1)NC(=O)N1CCN(C(=O)N[C@@H](Cc2ccccc2)C(=O)OC)CCN(C(=O)N[C@@H](Cc2ccccc2)C(=O)OC)CC1
- TGI (HCT-15 colon): > 100 µM
- TGI (OVCAR-3 ovarian): > 100 µM
- TGI (OVCAR-4 ovarian): > 100 µM
- TGI (SK-MEL-2 melanoma): > 100 µM
- TGI (LOX IMVI melanoma): > 100 µM
- TGI (TK-10 renal): > 100 µM
- TGI (HL-60(TB) leukemia): > 100 µM
- TGI (NCI-H23 lung): > 100 µM
- TGI (MOLT-4 leukemia): > 100 µM
- TGI (HOP-92 NSCLC): > 100 µM

SMILES: Cc1ccccc1N(C)S(=O)(=O)c1ccccc1[N+](=O)[O-]
- TGI (HCT-15 colon): > 100 µM
- TGI (OVCAR-3 ovarian): > 100 µM
- TGI (OVCAR-4 ovarian): > 100 µM
- TGI (SK-MEL-2 melanoma): > 100 µM
- TGI (LOX IMVI melanoma): > 100 µM
- TGI (TK-10 renal): > 100 µM
- TGI (HL-60(TB) leukemia): > 100 µM
- TGI (NCI-H23 lung): > 100 µM
- TGI (MOLT-4 leukemia): > 100 µM
- TGI (SF-539 CNS): > 100 µM

SMILES: CSc1cc(Cl)c(C)cc1S(=O)(=O)NC(=O)NNc1ccc(F)c(Cl)c1
- TGI (HCT-15 colon): > 100 µM
- TGI (OVCAR-3 ovarian): > 100 µM
- TGI (OVCAR-4 ovarian): > 100 µM
- TGI (SK-MEL-2 melanoma): > 100 µM
- TGI (LOX IMVI melanoma): > 100 µM
- TGI (MOLT-4 leukemia): > 100 µM
- TGI (SF-539 CNS): > 100 µM

SMILES: CC1[C@@H](OCc2ccccc2)COC(=O)N1Cc1ccccc1 (stereo partly drawn)
- TGI (HCT-15 colon): > 100 µM
- TGI (OVCAR-3 ovarian): > 100 µM
- TGI (OVCAR-4 ovarian): > 100 µM
- TGI (SK-MEL-2 melanoma): > 100 µM
- TGI (LOX IMVI melanoma): > 100 µM
- TGI (TK-10 renal): > 100 µM
- TGI (NCI-H23 lung): > 100 µM
- TGI (MOLT-4 leukemia): > 100 µM
- TGI (HOP-92 NSCLC): 92.9 µM

SMILES: CCN(CC)Cc1cc(Nc2c3ccccc3nc3c2[nH]c2ccccc23)ccc1O
- TGI (HCT-15 colon): 3.25 µM
- TGI (OVCAR-4 ovarian): 3.32 µM
- TGI (SK-MEL-2 melanoma): 2.75 µM
- TGI (LOX IMVI melanoma): 2.57 µM
- TGI (TK-10 renal): 8.61 µM
- TGI (NCI-H23 lung): 2.8 µM
- TGI (MOLT-4 leukemia): > 100 µM
- TGI (HOP-92 NSCLC): 3.46 µM
- TGI (SF-539 CNS): 2.74 µM

SMILES: CC(=O)c1ccc2c(c1)oc(=O)n2CCN1CCCCC1
- TGI (HCT-15 colon): > 100 µM
- TGI (OVCAR-3 ovarian): > 100 µM
- TGI (SK-MEL-2 melanoma): > 100 µM
- TGI (LOX IMVI melanoma): > 100 µM
- TGI (TK-10 renal): > 100 µM
- TGI (HL-60(TB) leukemia): > 100 µM
- TGI (NCI-H23 lung): > 100 µM
- TGI (MOLT-4 leukemia): > 100 µM
- TGI (SF-539 CNS): > 100 µM

SMILES: O=C(c1ccncc1)n1nc(-c2ccccc2)c(N=Nc2ccc([N+](=O)[O-])cc2)c1-c1ccccc1
- TGI (OVCAR-3 ovarian): > 100 µM
- TGI (OVCAR-4 ovarian): 28.2 µM
- TGI (SK-MEL-2 melanoma): > 100 µM
- TGI (TK-10 renal): > 100 µM
- TGI (HL-60(TB) leukemia): > 100 µM
- TGI (NCI-H23 lung): > 100 µM
- TGI (MOLT-4 leukemia): > 100 µM
- TGI (HOP-92 NSCLC): > 100 µM
- TGI (SF-539 CNS): > 100 µM
